From patent publication US4438091A, “Bromhexine delayed-release pharmaceutical form” (Dr. Karl Thomae GmbH, priority 1981, dated 1984)
In brackets after ≈: the same amount, converted by molar mass. Entries after “also recorded” stand apart in the source; their conditions may differ. Structures can show the parent of a compound that is named as a salt.

Columns and labels:
[1] = Solubility of bromhexine base in phosphate buffer / aqueous medium; format: physicochemical; conditions: for solubility: aqueous buffer
Source text: If, for example, bromhexine hydrochloride is made into the form of a matrix-type delayed-release tablet (Example 11), bromhexine can only be released, in dissolved form, from this preparation as long as the tablet is in the acidic medium of the stomach. […] The intestinal juices momentarily buffer the acid salts to form a substantially insoluble bromhexine base.

[2] = Absorption of bromhexine from the intestinal tract (preliminary tests in vivo); conditions: for absorption from the intestinal tract: micronized, introduced by preparation resistant to gastric juices
Source text: In view of the obvious advantages of producing a delayed-release form of bromhexine, there has been no shortage of attempts to produce such a preparation. […] In cases such as this, success is often achieved if the active substance is mixed with an emulsifier which then releases the active substance in solubilized form in the intestinal juices.

[3] = cited from earlier work

CN(Cc1cc(Br)cc(Br)c1N)C1CCCCC1 [bromhexine, N-cyclohexyl-N-methyl-(2-amino-3,5-dibromobenzyl)-amine]
Solubility in water ([1]; above a pH of 4 / from pH 4.0): virtually insoluble in water; also recorded: virtually insoluble from pH 4.0 | Solubility in aqueous medium ([1]; acidic range): soluble only in the acidic range | solubility ([1]; pH 4.5, phosphate buffer): 650 µg/mL (≈ 1730 µM) | solubility ([1]; pH 5.0, phosphate buffer): 150 µg/mL (≈ 399 µM) | solubility ([1]; pH 6.0, phosphate buffer): 30 µg/mL (≈ 79.8 µM) | solubility ([1]; pH 6.5, phosphate buffer): 10 µg/mL (≈ 26.6 µM) | solubility ([1]; pH 7.0, phosphate buffer): 3 µg/mL (≈ 7.98 µM) | absorption rate along the intestine ([2]; dissolved bromhexine in various intestinal sections, duodenum to colon): decreases sharply from the duodenum to the colon; also recorded: absorbed particularly quickly in the uppermost section of the intestines; also recorded: decreases significantly in the lower intestinal regions | frequency of coughing, total number of coughing spasms and intensity of the cough ([3]; in vivo): favorably affected | therapeutic effect in diseases of the respiratory tract ([3]; pathological change in secretion, single or double blind testing): often been confirmed | breathing ([3]; patients' finding): breathing is eased

CN(Cc1cc(Br)cc(Br)c1N)C1CCCCC1 [micronized bromhexine hydrochloride]
absorption from the intestinal tract [2]: did not result in any appreciable absorption

CN(Cc1cc(Br)cc(Br)c1N)C1CCCCC1 [micronized bromhexine]
absorption from the intestinal tract [2]: not absorbed
